Where no end group is shown, it is not given here. [ ]: non-standard residue; d: D form. pY = N[C@@H](Cc1ccc(OP(=O)(O)O)cc1)C(=O)O
Tests used:
MBP-STAT5b-SH2 [1] = target: T1, MBP-STAT5b-SH2 (Homo sapiens, UniProt P51692); assay: biochemical; parameters: fluorescence polarization competition with carboxyfluorescein-labelled phosphopeptide on MBP-STAT5b-SH2
T1 sequence (P51692 589-686 limits assumed): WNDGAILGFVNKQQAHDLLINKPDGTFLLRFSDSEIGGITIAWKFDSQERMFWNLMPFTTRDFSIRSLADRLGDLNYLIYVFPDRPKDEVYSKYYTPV
Experimental: 24 sealed with optical seal, shaken for 15 min, and centrifuged. Thermal scanning (20 to 95°C at 1°C/min) was performed using a real-time PCR setup (Light Cycler, Roche Diagnostics, Mannheim, Germany) and fluorescence intensity was measured after every 0.3 s. Curve fitting, melting temperature calculation and report generation on the raw data were performed using GraphPad Prism 5 software. Fluorescence polarization assays and screening Ca. 17000 compounds and fragments from the ChemBioNet library were tested in a fluorescence polarization (FP) assay to investigate their ability to bind to STAT5b-SH2 domain by displacing the fluorophore-labeled peptide 5-carboxyfluorescein-GY (PO3H2) LSLPPW-NH2 1. Purified compounds were tested in the same assay. The peptide purity was >95% and the assays were performed at room temperature. The final concentration of buffer components used was 10 mM HEPES (pH 7.5), 1 mM EDTA, 0.1% Igepal CA-630, 50 mM NaCl, and 5% DMSO and the final concentration of protein used was at 125 nM. The protein was first added to the black 384-well plate (Corning cat.CLS3676, Sigma Aldrich, Taufkirchen, Germany) followed by test compounds and fluorophore-labeled peptide. The plates were centrifuged, and measured using Safire2 well plate reader (Tecan, Crailsheim, Germany) after 15 min incubation at room temperature. For testing secondary site binding of primary hit fragments, the same assay was conducted in the presence of 4-formylphenyl phosphate 2 as described earlier. For specificity analysis, FP assay was conducted with 100 nM GST-tagged, full length human STAT3 protein (cat. S54-54G-50, SignalChem, Richmond, BC, Canada) and 10 nM fluorophore-labeled peptides (5-carboxyfluorescein-GY (PO3H2) LPQTV-NH2). […] Ligands with such high ligand efficiency are rather found for enzymatic binding pockets than for protein–protein interaction sites and thus fragment 3 was selected for further validation. Binding of 3 to STAT5b-SH2 was confirmed using the thermofluor assay[28],[29], a thermal shift assay (TSA), as an independent biophysical assay. Binding of fragment 3 augmented the melting point of STAT5 by ΔTm of 3 °C (Supplementary Figure 1). Potential binding modes of the phosphotyrosine 2 and the fragment hit 3 were scrutinized using a homology model of STAT5b derived from the crystal structure of STAT5a (PDB:1Y1U [10.2210/pdb1Y1U/pdb]) for molecular docking (Fig. 1b, c)[30]. The phosphotyrosine binding site in the STAT5-SH2 domain is shallow compared with the deeper binding pockets of PTP[31],[32], coordinating phenyl phosphate 2 by only two amino-acid residues, Arg618 and Ser622. As a result, the benzene ring of 2 is not buried in a cavity like in the case of PTPs but rather exposed to the solvent at the protein surface.

MBP-STAT5b-SH2 [2] = target: T1, MBP-STAT5b-SH2; assay: fluorescence polarization competition with peptide […]; type: binding; conditions: […] MOPS pH […], room temperature; competitive
MBP-STAT5b-SH2 [3] = target: T2, MBP-STAT5b-SH2 (Homo sapiens, UniProt P51692, N642A); assay: as above; type: binding; conditions: […] MOPS pH […], room temperature; competitive
T2 sequence (P51692 589-686 N642A limits assumed): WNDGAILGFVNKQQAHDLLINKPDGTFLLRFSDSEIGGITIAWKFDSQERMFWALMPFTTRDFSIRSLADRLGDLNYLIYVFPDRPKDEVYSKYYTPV

MBP-STAT5b-SH2 [4] = target: T1, MBP-STAT5b-SH2; assay: as above; type: binding; conditions: […] MOPS pH […], room temperature; competitive; remark: listed apart in the source
MBP-STAT5b-SH2 N642A = target: T3, MBP-STAT5b-SH2 N642A (human, UniProt P51692 589-686, N642A); assay: fluorescence polarisation; MBP-STAT5b-SH2 with peptide 1 (10 nM), 50 mM MOPS buffer pH 7.4, room temperature, 20 µl; conditions: both partners purified
T3 construct: STAT5b, SH2 domain with N642A; Same construct as m1 apart from the mutation; also called STAT5b-N642A; mutant STAT5b-N642A; source: generated by site-directed mutagenesis
T3 sequence (looked up): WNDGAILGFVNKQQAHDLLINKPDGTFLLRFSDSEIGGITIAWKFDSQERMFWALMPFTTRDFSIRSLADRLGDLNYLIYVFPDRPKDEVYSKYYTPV

[5] = target: T4, STAT5b-SH2 domain fused to maltose-binding protein (MBP) (human, UniProt P51692 589-686); assay: as above; conditions: both partners purified
T4 construct: STAT5b, SH2 domain; also called MBP-STAT5b-SH2; MBP-STAT5b; source: recombinantly expressed
T4 sequence (looked up): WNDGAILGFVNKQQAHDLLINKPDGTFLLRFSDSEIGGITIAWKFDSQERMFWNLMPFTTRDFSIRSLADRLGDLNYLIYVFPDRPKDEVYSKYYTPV

Molecule	Ki (MBP-STAT5b-SH2 [1])	Ki (MBP-STAT5b-SH2 [2])	also measured
O=Cc1ccc(OP(=O)(O)O)cc1 [compound 2, 4-formylphenyl phosphate]	> 2500 µM		
O=C(Cn1cnnn1)Nc1nonc1C(=O)O [compound 5, 4-(2-(1H-tetrazol-1-yl)-acetamido)-1,2,5-oxadiazole-3-carboxylic acid]	> 2500 µM		
O=C(O)c1nonc1NCn1cccn1 [compound 8, pyrazol-1-yl 8]		122 ± 25 µM	
O=C(O)c1nonc1NCn1cnnn1 [compound 10, 4-(Tetrazolyl-1-methylamino)-furazan-3-carboxylic acid]			IC50 (MBP-STAT5b-SH2 [3]): 30 µM; IC50 (MBP-STAT5b-SH2 [4]): 1.5 µM
O=C(O)c1nonc1NCn1nnnc1-c1ccccc1 [compound 11, 4-(5-phenyl-tetrazol-1-yl-methylamino)-furazane-3-carboxylate]		1.4 µM	
O=C(O)c1nonc1NCn1nnnc1-c1cccc(C(F)(F)F)c1 [compound 12, 5-(3-trifluoromethyl-phenyl)-12]		0.9 µM	
O=C(O)c1nonc1NCn1nnnc1-c1cccc(F)c1 [compound 13, 5-(3-fluorophenyl) 13]		0.6 µM	
c1nnn[nH]1 [compound 25, 1H-tetrazole]	> 2500 µM		
c1ccc(Cc2nn[nH]n2)cc1 [compound 26, benzyl-tetrazole]	> 2500 µM		
G[pY]LSLPPW (not fully specified (N-terminus); also: carboxyfluorescein label, place not given here) [carboxyfluoresceine-labeled phosphotyrosine octapeptide 1]			Kd (MBP-STAT5b-SH2 N642A): ~5 µM; Kd [5]: 0.055 µM
